Series [1] concerns the target muscarinic receptors (smooth muscle of the fundus of the stomach). Description: Binding to muscarinic receptors, 3H-N-methylscopolamine displacement, smooth muscle of fundus of stomach. The arrangement: species or system rat (male Sprague-Dawley). The settings on record: rat stomach fundus smooth muscle homogenate 1:100, 0.3 n molar 3H-NMS, pH 7.4, 30° C., 45 minutes; read-out: Receptor binding tests IC50 Smooth muscle fundus of stomach. On the procedure: (§1) 2. Studies of Binding to Muscarinic Receptors: Determination of the IC50 value
(§2) The organ donors were male Sprague-Dawley rats with a body weight of from 180 to 220 gm. After the heart, stomach and cerebral cortex had been removed, the remainder of the operation was carried out in ice-cold Hepes-HCl buffer (pH 7.4; 100 m molar NaCl, 10 m molar MgCl2). The smooth muscle of the fundus of the stomach was separated from the mucous membrane of the stomach and subjected to preliminary homogenization. The whole heart was cut up with scissors. All the organs were then homogenized in a Potter apparatus.
(§3) For the binding test, the homogenized organs were diluted as follows:
Smooth muscle of the fundus of the stomach--1: 100
(§4) The homogenized organ preparations were incubated at a specific concentration of the radioligand and with a series of concentrations of the non-radioactive test substances in an Eppendorf centrifuge tube at 30° C. The duration of incubation was 45 minutes. 0.3 n molar ^3 H-N-methylscopolamine (^3 H-NMS) was used as the radioligand. After incubation had been brought to an end by centrifuging at 14,000 g, the radioactivity in the pellet was determined. It represents the sum of the specific and non-specific binding of ^3 H-NMS. The proportion of non-specific binding was defined as the radioactivity which was bound in the presence of 1μ molar quinuclidinyl benzylate. Four measurements were taken in each case. The IC50 values of the nonlabelled test substances were determined graphically. They represent the concentration of test substance at which the specific binding of ^3 H-NMS to the muscarinic receptors in the various organs was inhibited by 50%.

For series [2], the system named is oxotremorine-induced lesions in mucous membrane of stomach (muscarinic receptors). The experiment in a line: Oxotremorine test: protection against oxotremorine-induced lesions of the gastric mucous membrane (anti-ulcerogenic effect). The settings on record: iv, rat, 0.62 mg/kg i.v. oxotremorine, 1 mg/kg oral neostigmine; for ED50: ED50, i.v.; for ED70: ED70, i.v. In kind it is in vivo, rat (female albino, Crl:COBS-CD (SD) BR). The text has this: (§5) Investigation of the Selectivity of the Antimuscarinic Activity
(§6) Oxotremorine, a specific agonist for muscarinic receptors, produces lesions in the mucous membrane of the stomach in rats and increases their secretion of saliva. This test method was chosen so that any selective activity of an antimuscarinic substance on the stomach could be identified.
(§7) Ten female albino rats (of the Crl:COBS-CD (SD) BR strain) with a body weight of from 120 to 150 gm were used in each treatment group and were kept without food for 24 hours before the start of the test, but given free access to drinking water.
(§8) In order to determine, in preliminary tests, the muscarinic effect of oxotremorine on each of the symptoms studied, a dosage/activity curve was drawn up with at least three dosages for each symptom.
(§9) When testing the antimuscarinic substances, the dosage of oxotremorine which triggered the symptom in question in 90 to 100% of the animals in the preliminary tests was used.
Lesion in mucous membrane of stomach: 0.62 mg/kg i.v.
Each antimuscarinic substance was administered intravenously in uniformly graduated doses 15 minutes before the oxotremorine was administered. Control groups were given corresponding quantities of the solvent and suspending agent instead of the test substance.
(§10) The ED50 values were determined using the method described by LITCHFIELD and WILCOXON [J. Pharmacol. Exp.Ther. 96, 99, (1949)].
The effects on lesions of the mucous membrane of the stomach were evaluated as follows:
The lesions of the gastric mucous membrane were produced by intravenous injection of 0.62 mg/kg of oxotremorin 30 minutes after the oral administration of 1 mg/kg of neostigmine (a cholinesterase inhibitor). 60 minutes after the administration of the neostigmine, the animals were killed, the stomachs were removed, opened and examined for the presence of any lesions in the mucous membrane. The protective effect of the test substances was expressed as the percentage inhibition (percentage of animals without lesions). The ED50 and ED70 values were determined using the method of LITCHFIELD and WILCOXON (supra).

In series [3] the target is muscarinic receptors (cerebral cortex). The experiment in a line: Binding to muscarinic receptors, 3H-N-methylscopolamine displacement, cerebral cortex. The arrangement: species or system rat (male Sprague-Dawley). The settings on record: rat cerebral cortex homogenate 1:3000, 0.3 n molar 3H-NMS, pH 7.4, 30° C., 45 minutes; read-out: Receptor binding tests IC50 Cortex. On the procedure: as §1, §2, §3, §4

Series [4] can be described thus: Mydriasis: effect on pupil size in rats. Particulars: in vivo, iv, rat, pupil size observed for 10 minutes. On the procedure:
The effect of the test substances on the pupil size in rats was investigated as follows:
The substances were administered intravenously to groups of 10 animals in at least three uniformly graduated doses. […] The percentage of test animals in which mydriasis occurred was determined. The ED50 values were again determined using the method of LITCHFIELD and WILCOXON (supra).

The target in series [5] is T1, muscarinic receptors (heart) (Rattus norvegicus, UniProt P10980).
T1 construct: All the organs were then homogenized in a Potter apparatus; from tissue; host or cells: whole heart of male Sprague-Dawley rats, homogenate diluted 1:250
T1 sequence (P10980 1-466): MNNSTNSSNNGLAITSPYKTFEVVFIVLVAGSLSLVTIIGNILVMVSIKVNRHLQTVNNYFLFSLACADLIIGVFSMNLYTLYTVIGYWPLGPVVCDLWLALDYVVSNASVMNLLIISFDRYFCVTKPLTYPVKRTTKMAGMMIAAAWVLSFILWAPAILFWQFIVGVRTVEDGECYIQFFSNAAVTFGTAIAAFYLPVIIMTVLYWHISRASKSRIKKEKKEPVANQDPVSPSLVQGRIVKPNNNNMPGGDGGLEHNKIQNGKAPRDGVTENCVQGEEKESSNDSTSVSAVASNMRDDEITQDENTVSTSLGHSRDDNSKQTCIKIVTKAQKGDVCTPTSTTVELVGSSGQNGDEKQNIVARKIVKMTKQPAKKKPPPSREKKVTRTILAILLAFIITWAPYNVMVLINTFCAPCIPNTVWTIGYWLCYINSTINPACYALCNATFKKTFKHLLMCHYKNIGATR
The experiment in a line: Binding to muscarinic receptors, 3H-N-methylscopolamine displacement, whole heart. Further details: species or system rat (male Sprague-Dawley). Particulars: rat whole heart homogenate 1:250, 0.3 n molar 3H-NMS, pH 7.4, 30° C., 45 minutes; read-out: Receptor binding tests IC50 Heart. On the procedure:
as §1, §2, §3, §4

Series [6] concerns oxotremorine-induced secretion of saliva (muscarinic receptors). Description: Oxotremorine test: inhibition of oxotremorine-induced secretion of saliva. Particulars: iv, 0.25 h; i.v., rat, 15 minutes before 0.083 mg/kg i.v. oxotremorine; read-out: Oxotremorine test Inhibition of salivation ED50. In kind it is in vivo, rat (female albino, Crl:COBS-CD (SD) BR).
Text: as §5, §6, §7, §8, §9
Secretion of saliva: 0.083 mg/kg i.v.
Each antimuscarinic substance was administered intravenously in uniformly graduated doses 15 minutes before the oxotremorine was administered. Control groups were given corresponding quantities of the solvent and suspending agent instead of the test substance. […]
as §10

The pIC50 is the negative decadic logarithm of the IC50, by convention in mol/L. In general, ED50 refers to the dose at which the effect has come halfway, by size or by number of responders.

pIC50: −log10 of the molar value.

Consider `CN1CCC(OC(=O)N2c3ccccc3NC(=O)c3cscc32)CC1` [A, 4,9-Dihydro-4-{[(1-methyl-4-piperidinyl)oxy]carbonyl}-10H-thieno[3,4-b][1,5]benzodiazepin-10-one], for which the pIC50 in series [1] is 6.70; in series [3], 7.40; in series [5], 6.74. Also, the 50% effective dose (ED50) in series [2] was 0.017 mg/kg; in series [6], 0.1 mg/kg. Moreover, the ED70 in series [2] was 0.025 mg/kg. Besides, in series [4], the 50% effect level (ED50 at 10 min) was put at a dose of 0.11 mg/kg.

Turning to `CN1CCC(NC(=O)N2c3ccccc3NC(=O)c3cscc32)CC1` [B, 4,9-Dihydro-4-{[(1-methyl-4-piperidinyl)amino]carbonyl}-10H-thieno[3,4-b][1,5]benzodiazepin-10-one], the pIC50 in series [1] was 6.52; in series [3], 7.52; in series [5], 6.66. Besides, the figures for the ED50 in series [2] and in series [6] were 0.017 mg/kg and 0.04 mg/kg, respectively. In addition, in series [2], the ED70 is 0.044 mg/kg. Also, in series [4], the ED50 at 10 min stood at 0.037 mg/kg.

Consider `CN1CCN(NC(=O)N2c3ccccc3NC(=O)c3cscc32)CC1` [C, 4,9-Dihydro-4-{[(4-methyl-1-piperazinyl)amino]carbonyl}-10H-thieno[3,4-b][1,5]benzodiazepin-10-one], for which the pIC50 in series [1] is 6.70; in series [3] it was 7.70; in series [5], 7.05. Moreover, in series [2], the ED70 came to 0.019 mg/kg. In series [4], this compound registered an ED50 at 10 min of 0.03 mg/kg.
